Earlier results on one molecule are cited in patent US6437103B1, “Fatty acid analogs for diagnosis of coronary artery disease” (Biostream Inc., priority 1999, dated 2002).

This series relates to myocardium. Conditions: background statement citing Goodman et al. 1984; Liefhold and Eisenhut 1986.

In the case of `O=C(O)CCCCCCCCCCCCCCc1ccc(I)cc1` [15-(p-iodophenyl)pentadecanoic acid], the myocardial uptake entry is given as “moderate”.
